Where “and” joins values, the source holds several entries; their conditions need not be identical. Equal entries are not always repeated.

In this test the target is RNA-directed RNA polymerase (Hepacivirus hominis, UniProt O39930). Description: Inhibitory concentration against Hepatitis C virus RNA dependent RNA polymerase Nonstructural protein 5B.
Chain of RNA-directed RNA polymerase (O39930 whole entry): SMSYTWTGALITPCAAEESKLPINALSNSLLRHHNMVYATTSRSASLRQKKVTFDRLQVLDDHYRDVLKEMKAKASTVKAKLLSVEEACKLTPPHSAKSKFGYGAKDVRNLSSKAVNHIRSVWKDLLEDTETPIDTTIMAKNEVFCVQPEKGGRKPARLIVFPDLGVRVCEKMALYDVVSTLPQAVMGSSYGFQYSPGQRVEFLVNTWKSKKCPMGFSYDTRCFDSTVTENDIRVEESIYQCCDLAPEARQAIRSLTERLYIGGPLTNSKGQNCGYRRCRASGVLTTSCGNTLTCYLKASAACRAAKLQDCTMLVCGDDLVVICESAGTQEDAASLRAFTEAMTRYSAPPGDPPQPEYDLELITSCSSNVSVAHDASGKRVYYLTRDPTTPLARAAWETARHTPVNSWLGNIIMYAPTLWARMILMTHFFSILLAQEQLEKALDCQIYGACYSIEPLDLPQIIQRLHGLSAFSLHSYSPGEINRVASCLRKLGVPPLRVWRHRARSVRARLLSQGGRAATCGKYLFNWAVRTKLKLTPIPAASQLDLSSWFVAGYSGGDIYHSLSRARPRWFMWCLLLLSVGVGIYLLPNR
As usually defined, the IC50 is the midpoint of a concentration-inhibition curve. A high value points to weaker potency. Molecule `CC(C)C[C@@]1(C(=O)O)C[C@H](C(=O)O)[C@H](c2cccs2)N1C(=O)c1ccc(Cl)c(Cl)c1` gave an IC50 of 600 nM. In the case of `Cc1ccc([C@H]2[C@@H](C(=O)O)C[C@@](CC(C)C)(C(=O)O)N2C(=O)c2ccc(C(F)(F)F)cc2)cc1` it was 1000 nM. As to `C[C@@]1(C(=O)O)C[C@H](C(=O)O)[C@H](c2ccccc2)N1C(=O)c1ccc(C(F)(F)F)cc1`, the IC50 is above 20000 nM. Molecule `CC(C)C[C@@]1(C(=O)O)C[C@H](C(=O)O)[C@H](c2nccs2)N1C(=O)c1ccc(C(F)(F)F)cc1` registered an IC50 of 400 nM. With `O=C(O)[C@H]1C[C@@](Cc2ccc(O)cc2)(C(=O)O)N(C(=O)c2ccc(C(F)(F)F)cc2)[C@H]1c1ccccc1`, the IC50 was above 20000 nM. `O=C(O)[C@H]1C[C@@](Cc2ccccc2)(C(=O)O)N(C(=O)c2ccc(C(F)(F)F)cc2)[C@H]1c1ccccc1` showed an IC50 of 1900 nM. Take `CCCC[C@@]1(C(=O)O)C[C@H](C(=O)O)[C@H](c2ccccc2)N1C(=O)c1ccc(C(F)(F)F)cc1`: it took 3300 nM to reach half-maximal inhibition (IC50). In the case of `CC(C)C[C@@]1(C(=O)O)C[C@H](C(=O)O)[C@H](c2cccs2)N1C(=O)c1cccc2ccccc12` it was 700 nM. The result for `NCCC[C@@]1(C(=O)O)C[C@H](C(=O)O)[C@H](c2ccccc2)N1C(=O)c1ccc(C(F)(F)F)cc1` reads above 20000 nM. In the case of `CC(C)C[C@@]1(C(=O)O)C[C@H](C(=O)O)[C@H](c2cccs2)N1C(=O)c1ccncc1` it was above 20000 nM; in that of `CC(C)C[C@@]1(C(=O)O)C[C@H](C(=O)O)[C@H](c2ccco2)N1C(=O)c1ccc(C(F)(F)F)cc1`, 800 nM. For the molecule `O=C(O)[C@H]1C[C@@H](C(=O)O)N(C(=O)c2ccc(Cl)c(Cl)c2)C1` (racemic), it took 12000 nM to reach half-maximal inhibition (IC50).

As to `O=C(O)[C@H]1C[C@@H](C(=O)O)N(C(=O)c2ccc(C(F)(F)F)cc2)C1` (racemic), inhibition was half-maximal at 7600 nM (IC50).

Consider `CC(C)C[C@@]1(C(=O)O)C[C@H](C(=O)O)[C@H](c2cccs2)N1C(=O)c1cccc(C(F)(F)F)c1`, for which inhibition was half-maximal at 600 nM (IC50). In turn, `CC(C)C[C@@]1(C(=O)O)C[C@H](C(=O)O)[C@H](c2ccccc2)N1C(=O)c1ccc(C(F)(F)F)cc1` showed an IC50 of 700 nM. `CC(C)C[C@@]1(C(=O)O)C[C@H](C(=O)O)[C@H](c2cccs2)N1C(=O)c1ccc([N+](=O)[O-])cc1` returned an IC50 of 3200 nM. The molecule `O=C(O)CC[C@@]1(C(=O)O)C[C@H](C(=O)O)[C@H](c2ccccc2)N1C(=O)c1ccc(C(F)(F)F)cc1` had an IC50 above 20000 nM. Molecule `CC(C)C[C@@]1(C(=O)O)C[C@H](C(=O)O)[C@H](c2cccs2)N1C(=O)c1ccccc1C(F)(F)F` showed an IC50 above 20000 nM. Consider `CCCCCCC(=O)N1[C@@H](c2cccs2)[C@@H](C(=O)O)C[C@@]1(CC(C)C)C(=O)O`, for which the IC50 is above 20000 nM. With `CC(C)C[C@@]1(C(=O)O)C[C@H](C(=O)O)C(c2cccs2)N1C(=O)c1ccc(C(F)(F)F)cc1` (single isomer, unassigned), the IC50 was 18000 nM.

As to `CC(C)C[C@@]1(C(=O)O)C[C@H](C(=O)O)[C@H](c2cccs2)N1C(=O)c1ccccc1`, half-maximal inhibition (IC50) required 11400 nM. In turn, `CC(C)C[C@@]1(C(=O)O)C[C@H](C(=O)O)[C@H](C(C)C)N1C(=O)c1ccc(C(F)(F)F)cc1` showed an IC50 of 500 nM.

As for `CC(C)C[C@@]1(C(=O)O)C[C@H](C(=O)O)[C@H](c2cccs2)N1C(=O)c1ccc(C(F)(F)F)cc1`, the IC50 was 300 nM and 190 nM. In the case of `CC(C)C[C@@]1(C(=O)O)C[C@H](C(=O)O)[C@H](c2ccccn2)N1C(=O)c1ccc(C(F)(F)F)cc1` it was 700 nM; in that of `CC(C)C[C@@]1(C(=O)O)C[C@H](C(=O)O)[C@H](c2cccs2)N1C(=O)c1ccc(Cl)cc1`, 1700 nM. The molecule `COc1ccccc1[C@H]1[C@@H](C(=O)O)C[C@@](CC(C)C)(C(=O)O)N1C(=O)c1ccc(C(F)(F)F)cc1` showed an IC50 of 5100 nM. In the case of `CC(C)C[C@@]1(C(=O)O)C[C@H](C(=O)O)[C@H](c2ccc(Cl)cc2)N1C(=O)c1ccc(C(F)(F)F)cc1` it was 900 nM.

These data come from ChEMBL document CHEMBL1142030, “Identification of small molecule inhibitors of the hepatitis C virus RNA-dependent RNA polymerase from a pyrrolidine combinatorial mixture” (Bioorg Med Chem Lett, 2005).
